According to patent US20120220548A1, “Compositions and methods for treatment of virus-associated cancer cells” (priority 2011, published 2012):
pIC50: −log10 of the molar value.

What was measured:
[1] = system: BCBL-1 cells; details: 3 weeks
Protocol: Mice were injected with 2×10^7 BCBL-1 cells and were weighed as a function of time every week for 3 weeks, to assess tumor growth. […] The weight is shown on the ordinate and time in days on the abscissa.
Mice were injected with 2×10^7 BCBL-1 cells (a strain of PEL cells) and were weighed as a function of time every week for three weeks, to assess tumor growth. Weight was compared to control mice not receiving BCBL-1 cells.

[2] = system: BCBL-1 primary effusion lymphoma (PEL) cells; test: rapamycin cell killing of BCBL-1 PEL cells in culture with or without oHA (relative cell viability); format: cell-based, human
Protocol: The cells used are the PEL strain known as body cavity-based lymphoma-1 (BCBL-l; diamonds and squares). The squares indicate data from cells to which oHA was added along with rapamycin.
Cell viability was assessed using both MTT and Trypan blue exclusion assays as described in Qin Z, et al. PLoS Pathog 2010; 6(1): e1000742. For MTT assays, a total of 5×10^3 PEL cells were incubated individual wells of a 96-well plate for 24 hours. Serial dilutions of paclitaxel, doxorubicin or oHAs were added and subsequently incubated in 1 mg/ml MTT solution (Sigma-Aldrich) at 37° C. for 3 hours. Thereafter, cells were incubated in 50% dimethylsulfoxide overnight and optical densities determined at 570 nm using a spectrophotometer (Thermo Labsystems, West Palm Beach, Fla., USA). For Trypan blue exclusion assays, cells were incubated with 0.4% Trypan blue (MP Biomedicals, Northbrook, Ill., USA) and observed under light microscopy. Relative cell viability was determined after assessment of at least 1000 cells per condition for each experiment using the following formula: (no. of live cells/no. of total cells for experimental conditions)/ (no. of live cells/no. of total cells for vehicle-treated control cells). […]

[3] = doxorubicin 0.2 mg/kg intraperitoneally

| SMILES | effect on progress of lymphoma (weight gain) ([1]; doxorubicin 0.2 mg/kg i.p., oHA 0.5 mg/kg i.p.) | tumor-associated weight gain [1, 3] [g] | tumor-associated weight gain from baseline weight of 25-28g [1, 3] | survival (relative cell viability) ([2]; 1 nM rapamycin, this agent alone) | pIC50 ([2]; Homo sapiens, BCBL1, read-out: concentration of rapamycin giving cell death of about half the cells, rapamycin alone) |
| --- | --- | --- | --- | --- | --- |
| COc1cccc2c1C(=O)c1c(O)c3c(c(O)c1C2=O)C[C@@](O)(C(=O)CO)C[C@@H]3O[C@H]1C[C@H](N)[C@H](O)[C@H](C)O1 [doxorubicin] | only slightly reduced the increase in weight | 4 to 7 | approximately 35% |  |  |
| CO[C@H]1C[C@@H]2CC[C@@H](C)[C@@](O)(O2)C(=O)C(=O)N2CCCC[C@H]2C(=O)O[C@H]([C@H](C)C[C@@H]2CC[C@@H](O)[C@H](OC)C2)CC(=O)[C@H](C)/C=C(\C)[C@@H](O)[C@@H](OC)C(=O)[C@H](C)C[C@H](C)/C=C/C=C/C=C/1C [rapamycin] |  |  |  | greater than 0.95 | 7.70 to 8.00 |
